Measurements: US6458783B1, “Non-imidazole benzodiazepine inhibitors of farnesyl protein transferase” (Bristol-Myers Squibb Company, priority 1997, dated 2002)
Structures can show the parent of a compound that is named as a salt.

melting point: 140 °C
Compound: NC(CS)CN1CCN(C(=O)c2cccc3ccccc23)Cc2ccccc21 (racemic) (as salt: hydrochloride) [Example 1, (+,−)-1-(2-Amino-3-mercaptopropyl)-2,3,4,5-tetrahydro-4-(naphthalenylcarbonyl)-1H-1,4-benzodiazepine, Monohydrochloride]
